Data published in patent publication US20110288174A1, “Monohydrate of 4-(phenyl)ethyl]-amino}methyl)benzoic acid” (BAYER SCHERING PHARMA AKTIENGESELLSCHAFT, priority 2008, published 2011).

Test: Stability of the solid forms (thermodynamic and storage stability)
Type: physicochemical
Conditions: for thermodynamic stability of the crystal form: solid form of the compound of the formula (I)

Row | Compound | thermodynamic stability of the crystal form | storage stability (even after processing to aqueous suspensions)
1 | O=C(O)CCCCN(CCc1ccccc1OCc1ccc(CCc2ccccc2)cc1)Cc1ccc(C(=O)O)cc1 [modification IV, 4-({(4-Carboxybutyl)[2-(2-{[4-(2-phenylethyl)benzyl]oxy}phenyl)ethyl]amino}methyl)benzoic acid] | metastable | 
2 | O=C(O)CCCCN(CCc1ccccc1OCc1ccc(CCc2ccccc2)cc1)Cc1ccc(C(=O)O)cc1 [monohydrate A, monohydrate of 4-({(4-carboxybutyl)[2-(2-{[4-(2-phenylethyl)benzyl]oxy}phenyl)ethyl]amino}methyl)benzoic acid in form A] | thermodynamically stable | storage-stable
